Reference: article PMC10539361, “Allosteric modulation of the fish taste receptor type 1 (T1R) family by the extracellular chloride ion” (Scientific Reports, 2023)

Target: T1, zfT1R2a/zfT1R3 (Danio rerio, UniProt A0A8M1N8F9+Q2MHK9)
T1 sequence (A0A8M1N8F9 26-825): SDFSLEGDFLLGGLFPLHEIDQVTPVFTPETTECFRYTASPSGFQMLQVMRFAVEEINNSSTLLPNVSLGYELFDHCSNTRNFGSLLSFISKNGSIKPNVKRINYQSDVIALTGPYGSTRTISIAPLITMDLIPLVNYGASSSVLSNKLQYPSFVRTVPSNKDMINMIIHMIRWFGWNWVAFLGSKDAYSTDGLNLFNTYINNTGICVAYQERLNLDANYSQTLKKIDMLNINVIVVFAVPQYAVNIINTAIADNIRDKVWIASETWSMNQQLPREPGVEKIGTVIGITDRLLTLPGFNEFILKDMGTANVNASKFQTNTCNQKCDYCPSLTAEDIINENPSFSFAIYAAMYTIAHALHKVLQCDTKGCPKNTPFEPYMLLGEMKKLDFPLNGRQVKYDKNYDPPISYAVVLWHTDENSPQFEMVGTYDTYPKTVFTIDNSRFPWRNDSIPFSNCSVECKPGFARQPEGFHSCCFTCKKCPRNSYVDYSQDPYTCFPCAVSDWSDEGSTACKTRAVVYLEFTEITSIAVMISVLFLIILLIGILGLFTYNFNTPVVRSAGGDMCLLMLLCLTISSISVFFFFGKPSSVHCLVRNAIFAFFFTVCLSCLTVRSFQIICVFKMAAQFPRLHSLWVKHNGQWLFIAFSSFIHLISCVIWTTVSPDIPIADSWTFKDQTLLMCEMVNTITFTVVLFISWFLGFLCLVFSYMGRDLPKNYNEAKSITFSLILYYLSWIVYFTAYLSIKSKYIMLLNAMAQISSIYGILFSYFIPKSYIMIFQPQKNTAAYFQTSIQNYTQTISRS
T1 sequence (Q2MHK9 25-850): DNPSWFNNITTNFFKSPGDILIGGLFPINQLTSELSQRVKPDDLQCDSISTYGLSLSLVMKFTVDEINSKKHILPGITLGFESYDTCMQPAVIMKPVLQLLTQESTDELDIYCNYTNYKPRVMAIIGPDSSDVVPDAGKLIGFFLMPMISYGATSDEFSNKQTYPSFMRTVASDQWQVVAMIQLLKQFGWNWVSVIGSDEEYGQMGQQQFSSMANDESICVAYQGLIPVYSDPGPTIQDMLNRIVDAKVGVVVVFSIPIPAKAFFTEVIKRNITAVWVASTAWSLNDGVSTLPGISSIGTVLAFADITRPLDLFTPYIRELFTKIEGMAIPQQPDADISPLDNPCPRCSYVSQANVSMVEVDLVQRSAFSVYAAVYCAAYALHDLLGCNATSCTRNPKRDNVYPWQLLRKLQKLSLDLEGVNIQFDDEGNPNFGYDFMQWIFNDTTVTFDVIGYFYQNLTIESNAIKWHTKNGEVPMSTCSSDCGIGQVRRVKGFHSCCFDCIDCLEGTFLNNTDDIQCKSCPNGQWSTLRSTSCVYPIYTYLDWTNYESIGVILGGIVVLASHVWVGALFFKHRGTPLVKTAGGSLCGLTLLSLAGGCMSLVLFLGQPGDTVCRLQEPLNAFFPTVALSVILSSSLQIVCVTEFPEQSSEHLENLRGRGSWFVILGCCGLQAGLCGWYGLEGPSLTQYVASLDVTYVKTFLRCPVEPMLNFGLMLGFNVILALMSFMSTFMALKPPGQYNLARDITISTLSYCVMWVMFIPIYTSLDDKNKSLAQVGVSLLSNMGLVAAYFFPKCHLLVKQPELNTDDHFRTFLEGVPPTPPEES
Assay: Effect of anions, cations and osmotic pressure on cellular responses, cells in 10 mM Cl- buffer, zfT1R2a/zfT1R3
Assay type: cell-based, zebrafish
Conditions: for response to fixed concentration of L-Pro on coapplication: coapplied with 160 µM L-Pro, final [Cl-]o up to 60 mM
Description: Cells were seeded in 96-well plates coated with ε-poly-L-lysine at approximately 70,000 cells per well. […] Fluorescence changes were monitored at 2 s intervals, as described above. […] Three independent experiments were conducted for each receptor, and representative results are shown as the mean ± SEM (n = 3 replicates). Statistical tests were conducted using KyPlot version 6.0 (KyensLab Inc., Tokyo, Japan). Statistical significance was set at p < 0.05.

Structure (SMILES) | response to fixed concentration of L-Pro on coapplication | cellular response to the salt alone (without agonist)
O=C([O-])[C@H](O)[C@@H](O)[C@H](O)[C@H](O)CO.[Na+] [Na-gluconate, sodium gluconate] | did not enhance | –
[Cl-].[Na+] [NaCl] | enhanced | did not elicit
